The PolyMetriX glass transition set
± gives the standard deviation of the reports.

glass transition temperature [°C]	SMILES
297.00	*c1ccc(Oc2ccc3ccccc3c2-c2c(Oc3ccc(N4C(=O)c5ccc(NC(=O)Nc6cccc7c(NC(=O)Nc8ccc9c(c8)C(=O)N(*)C9=O)cccc67)cc5C4=O)cc3)ccc3ccccc23)cc1 (repeat unit)
352.00	*c1ccc2oc(-c3ccc(-c4nc5cc(C(*)(C(F)(F)F)C(F)(F)F)ccc5o4)cn3)nc2c1 (repeat unit)
47.50	*CCCCCOC(=O)c1ccc(-c2ccc(C(=O)O*)cc2)cc1 (repeat unit)
241.50 ± 18	*c1ccc2c(c1)C(=O)N(c1ccc(Oc3cccc(Oc4ccc(N5C(=O)c6ccc(C(*)(C(F)(F)F)C(F)(F)F)cc6C5=O)cc4)c3)cc1)C2=O (repeat unit)
182.00	*CC(*)(C)C(=O)NC(=O)Oc1ccc(S(=O)(=O)c2ccc(O)cc2)cc1 (repeat unit)
142.00	*CC(*)(C)C(=O)OCCS(=O)(=O)c1ccc(/N=N/c2ccc(N(CC)CC)cc2)cc1 (repeat unit)
130.00	*CCCCOc1ccc(-c2ccc(O*)c3ccccc23)c2ccccc12 (repeat unit)
117.00	*CCN(CCOC(=O)c1ccc(C(=O)O*)c(OCCC)c1)c1ccc(/N=N/c2ccc(-c3nc4ccccc4o3)cc2)cc1 (repeat unit)
154.00	*c1ccc(C(=O)NCCCCCCCCCCCCNC(=O)c2ccc(-c3nc4ccccc4nc3*)cc2)cc1 (repeat unit)
-6.00	*CCCOC(=O)C1CCC(C(=O)O*)CC1 (repeat unit)
38.00	*CCCCCCCCOC(=O)NNC(=O)CCCCCCCCC(=O)NNC(=O)O* (repeat unit)
180.00	*CC1CCCC(CNC(=O)c2cccc(C(=O)N*)c2)C1 (repeat unit)
142.00	*c1ccc2c(c1)Sc1cc(-c3ccc(-c4ccc(*)s4)s3)ccc1N2CCCCCCCCCC (repeat unit)
300.00	*c1ccc(Oc2ccc(-c3nc4cc(-c5ccc6nc(-c7ccccc7)c(*)nc6c5)ccc4nc3-c3ccccc3)cc2)cc1 (repeat unit)
56.50	*/C=C/C1CC(*)C2C(=O)N(CCCCCCCC)C(=O)C12 (repeat unit)
334.00	*c1ccc(Oc2ccc(-c3cnc4cc(-c5ccc6nc(*)cnc6c5)ccc4n3)cc2)cc1 (repeat unit)
296.00	*C(=O)c1ccc2c(c1)C(=O)N(c1ccc(Oc3ccc(N4C(=O)c5ccc(*)cc5C4=O)cc3Br)c(Br)c1)C2=O (repeat unit)
96.00	*Oc1ccc(CC(NC(=O)CCc2ccc(OC(*)=O)cc2)C(=O)OCC)cc1 (repeat unit)
128.00	*Oc1ccc(C(CC)c2ccc(OC(*)=O)cc2)cc1 (repeat unit)
166.00	*c1ccc(C(=O)Oc2ccc(OC(=O)c3ccc(N4C(=O)CC(SCCOCCSC5CC(=O)N(*)C5=O)C4=O)cc3)cc2)cc1 (repeat unit)
270.00	*C(=O)Oc1ccc(OC(=O)c2ccc3c(c2)C(=O)N(c2ccc(Oc4ccc(N5C(=O)c6ccc(*)cc6C5=O)cc4)cc2)C3=O)cc1 (repeat unit)
203.00	*/N=N/c1ccc(Nc2ccc(C(=O)c3ccc(C(=O)c4ccc(Nc5ccc(*)cc5)cc4)cc3)cc2)cc1 (repeat unit)
221.00	*CCC(=O)Nc1ccc(Oc2ccc(Oc3ccc(NC(=O)CCN4C(=O)c5ccc(C(=O)c6ccc7c(c6)C(=O)N(*)C7=O)cc5C4=O)cc3)cc2)cc1 (repeat unit)
179.00	*C(=O)c1ccc2c(c1)C(=O)N(c1cc(OCCCCCCCCCCCCCCCC)cc(N3C(=O)c4ccc(*)cc4C3=O)c1)C2=O (repeat unit)
234.00	*NNC(=O)c1ccc(C(*)=O)cc1OCCCCC (repeat unit)
134.00	*Oc1cccc(OC(=O)c2ccc([Si](C)(C)c3ccc(C(*)=O)cc3)cc2)c1 (repeat unit)
194.00	*Oc1ccc(C2(c3ccc(Oc4ccc(C(=O)c5cccc(C(=O)c6ccc(*)cc6)c5)cc4)cc3)CCC3CCCCC3C2)cc1 (repeat unit)

glass transition temperature [°C]	SMILES
361.00	*c1ccc(Oc2ccc(-c3c4ccccc4c(-c4ccc(Oc5ccc(-c6c7c(c(*)c8ccccc68)C(=O)N(c6ccccc6)C7=O)cc5)c(C(F)(F)F)c4)c4ccccc34)cc2C(F)(F)F)cc1 (repeat unit)
94.00	*Oc1c(OC)cc(-c2cc(OC)c(OC(=O)CCCCCCCCC(*)=O)c(OC)c2)cc1OC (repeat unit)
128.00	*CC(*)(C)C(=O)OCC(=O)N1CCOCC1 (repeat unit)
184.42 ± 6.3	*Oc1ccc(C(C)(C)c2ccc(OC(=O)c3cccc(C(*)=O)c3)cc2)cc1 (repeat unit) [Poly(bisphenol A isophthalate)]
129.00	*c1ccc(-c2sc(-c3cc(SCCCC)c(*)s3)cc2SCCCC)cc1 (repeat unit)
216.00	*c1ccc(Oc2ccc(Oc3ccc(Oc4ccc(-c5cnc6ccc(-c7ccc8nc(*)cnc8c7)cc6n5)cc4)cc3)cc2)cc1 (repeat unit)
41.50	*Oc1cc(CCCCCCCCC)cc(OC(=O)c2cccc(C(*)=O)c2)c1 (repeat unit)
15.00	*O[Si](*)(C)CCCOc1ccc(C(=O)Oc2ccc(OCCCCCC)cc2)cc1 (repeat unit)
49.00	*CC(*)(C)C(=O)OCCCCCCCCCCOc1ccc(/N=N/c2ccc(F)cc2)cc1 (repeat unit)
70.00	*CCCCC(=O)NCc1ccc(CNC(=O)CCCCS*)cc1 (repeat unit)
136.00	*CCN(CCOC(=O)NCC1(C)CC(NC(=O)O*)CC(C)(C)C1)c1ccc(/N=N/c2ccc(C#N)cc2)cc1 (repeat unit)
43.00	*CC(*)(C)C(=O)OCCCCCC(=O)Oc1ccc(OC(=O)c2ccc(OCC)cc2)cc1 (repeat unit)
130.00	*CC(*)c1ccc(COc2ccc(-c3ccc(-c4ccc(C)s4)c4nsnc34)cc2)cc1 (repeat unit)
162.00	*c1cc(OCCCCCCCCCCCC)cc(N2C(=O)c3ccc(Oc4ccc5c(c4)C(=O)N(*)C5=O)cc3C2=O)c1 (repeat unit)
87.00	*CCCCCCOC(=O)Nc1ccc(C)c(NC(=O)OCCCCCCOc2ccc(-c3ccc(O*)cc3)cc2)c1 (repeat unit)
13.00	*c1ccc(-c2cc(CCCCCCCC)c(-c3ccc(-c4ccc(-c5sc(-c6ccc([Si](C)(C)[Si](C)(C)[Si](C)(C)[Si](C)(C)[Si](C)(C)[Si](C)(C)[Si](C)(C)[Si](*)(C)C)s6)cc5CCCCCCCC)s4)s3)s2)s1 (repeat unit)
186.00	*Oc1ccc(S(=O)(=O)c2ccc(Oc3ccc(C(C)(C)c4ccc(*)cc4)cc3)cc2)cc1 (repeat unit)
47.00	*CC(*)(CC(=O)OCCCCl)C(=O)OCCCCl (repeat unit)
83.00	*Oc1ccc(OC(=O)c2ccc(C(*)=O)cc2Oc2ccc(Oc3ccccc3)cc2)cc1 (repeat unit)
110.00	*/C=C/c1cc(OCC(CC)CCCC)c(/C=C/c2cc(OC)c(*)cc2OC)cc1OC (repeat unit)
-36.00	*CCCCCCCCCCCCC(=O)O* (repeat unit)
22.00	*c1cccc(OCCCCCCCCCCCOC(=O)c2ccc(C(=O)OCCCCCCCCCCCOc3cccc(-c4nnc(*)s4)c3)cc2)c1 (repeat unit)
73.13	*COc1ccc(C(C)(C)c2ccc(Oc3ccc(*)n3-c3ccc(C#N)cc3)cc2)cc1 (repeat unit)
220.00	*Oc1ccc(C(C)(C)c2ccc(OC(=O)c3ccc(S(=O)(=O)c4ccc(C(*)=O)cc4)cc3)cc2)cc1 (repeat unit)
281.10	*c1cc(Oc2c(C)cc(-c3cc(C)c(Oc4cc(N5C(=O)c6ccc(-c7ccc8c(c7)C(=O)N(*)C8=O)cc6C5=O)cc(C(F)(F)F)c4)c(C)c3)cc2C)cc(C(F)(F)F)c1 (repeat unit)
178.00	*/C=C/c1ccc2c(c1)C(CCCCCC)(CCCCCC)c1cc(/C=C/c3nc(*)c(C#N)c(/C=C/c4ccc(N(c5ccccc5)c5ccccc5)cc4)c3C#N)ccc1-2 (repeat unit)

SMILES	glass transition temperature [°C]
*Oc1cccc(NC(=O)c2ccc(P(=O)(c3ccccc3)c3ccc(C(=O)Nc4cccc(Oc5ccc(P(=O)(c6ccccc6)c6ccc(*)cc6)cc5)c4)cc3)cc2)c1 (repeat unit)	235.00
*/C=C(/*)c1ccccc1C(F)(F)F (repeat unit)	130.00
*CC(*)OC(=O)c1ccccc1 (repeat unit)	70.40
*CC(CC)N(*)C(=O)CCCC (repeat unit)	52.00
*C(=O)Nc1ccc(-c2ccc(NC(=O)c3ccc4c(c3)C(=O)N(c3cccc(P(=O)(c5ccccc5)c5cccc(N6C(=O)c7ccc(*)cc7C6=O)c5)c3)C4=O)cc2)cc1 (repeat unit)	253.00
*CCCCCCOC(=O)C(CCCCCCP(=O)(O)O)C(=O)OCCCCCCOc1ccc(-n2on2-c2ccc(O*)cc2)cc1 (repeat unit)	21.00
*CCCCCCCCCCOc1ccc(/C=C/c2ccc(OCCCCCCCCCCOP(=O)(O*)OCCCCCCCCCCOc3ccc(/N=N/c4ccc(C#N)cc4)cc3)cc2)cc1 (repeat unit)	60.00
*CC(*)c1cccc(OC(C)=O)c1 (repeat unit)	76.00
*CCCCCCOc1ccc(/C=C2\CC/C(=C\c3ccc(OCCCCCCOP(=O)(O*)OCC)c(OC)c3)C2=O)cc1OC (repeat unit)	75.00
*CC(*)c1ccccc1COCCCC (repeat unit)	67.00
*CC(*)C(=O)OCCOC (repeat unit)	-34.00
*CC(COC)O* (repeat unit) [Poly(3-methoxypropylene oxide) ]	-62 ± 1.2
*CC(O*)c1ccco1 (repeat unit)	12.50
*CC(*)c1ccc(C(C)C)cc1 (repeat unit)	62.40
